Values after ≈ are worked out from the molar mass of the structure shown.
Key:
Type in all cases: functional
Staphylococcus aureus [1] = experiment: Minimum inhibitory concentration against 819 Staphylococcus aureus Smith MSSA
Streptococcus pyogenes = experiment: Minimum inhibitory concentration against 49 Streptococcus pyogenes C203
[2] = test system: Staphylococcus epidermidis; experiment: Minimum inhibitory concentration against 147 Staphylococcus epidermidis ATCC 12228
Staphylococcus aureus [3] = experiment: Minimum inhibitory concentration against 613 Staphylococcus aureus Clin. isolate Met-R
Enterococcus faecium [4] = experiment: Minimum inhibitory concentration against 568 Enterococcus faecium (isogenic of L569)
Staphylococcus aureus [5] = experiment: Minimum inhibitory concentration against 3798 Staphylococcus aureus Clin. isolate VISA
Staphylococcus aureus [6] = experiment: Minimum inhibitory concentration against 1400 Staphylococcus aureus Clin. isolate Met-R
Staphylococcus aureus [7] = experiment: Minimum inhibitory concentration against 3797 Staphylococcus aureus Clin. isolate VISA
Enterococcus faecalis [8] = experiment: Minimum inhibitory concentration against 559 Enterococcus faecalis (isogenic of L 560)
Enterococcus faecalis [9] = experiment: Minimum inhibitory concentration against 2981 Enterococcus faecalis clin. Isolate Van-A
Enterococcus faecium [10] = experiment: Minimum inhibitory concentration against 2215 Enterococcus faecium clin. isolate Van-A
Enterococcus faecium [11] = experiment: Minimum inhibitory concentration against 569 Enterococcus faecium clin. isolate Van-A
Enterococcus faecalis [12] = experiment: Minimum inhibitory concentration against 559 Enterococcus faecalis Van-A
Enterococcus faecalis [13] = experiment: Minimum inhibitory concentration against 1139 Enterococcus faecalis teico-vanco-sensitive

| Compound | MIC (Staphylococcus aureus [1]) [µg/mL] | MIC (Streptococcus pyogenes) [µg/mL] | MIC [2] [µg/mL] | MIC (Staphylococcus aureus [3]) [µg/mL] | MIC (Enterococcus faecium [4]) [µg/mL] | MIC (Staphylococcus aureus [5]) [µg/mL] | MIC (Staphylococcus aureus [6]) [µg/mL] | MIC (Staphylococcus aureus [7]) [µg/mL] | MIC (Enterococcus faecalis [8]) [µg/mL] | MIC (Enterococcus faecalis [9]) [µg/mL] | MIC (Enterococcus faecium [10]) [µg/mL] | MIC (Enterococcus faecium [11]) [µg/mL] | MIC (Enterococcus faecalis [12]) [µg/mL] | MIC (Enterococcus faecalis [13]) [µg/mL] |
| --- | --- | --- | --- | --- | --- | --- | --- | --- | --- | --- | --- | --- | --- | --- |
| CC(=O)N[C@@H]1[C@H](Oc2c3cc4cc2Oc2ccc(cc2Cl)[C@@H](O[C@@H]2O[C@@H](CO)[C@@H](O)[C@H](O)[C@@H]2NC(C)=O)[C@@H]2NC(=O)[C@H](NC(=O)[C@@H]4NC(=O)[C@H]4NC(=O)[C@@H](Cc5ccc(c(Cl)c5)O3)NC(=O)[C@H](N)c3ccc(O)c(c3)Oc3cc(O)cc4c3)c3ccc(O)c(c3)-c3c(O[C@H]4O[C@H](CO)[C@@H](O)[C@@H](O)[C@@H]4O)cc(O)cc3[C@@H](C(=O)O)NC2=O)O[C@@H](CO)[C@@H](O)[C@@H]1O | 1 (≈ 0.566 µM) | ≤ 0.125 | 2 (≈ 1.13 µM) | 1 (≈ 0.566 µM) | ≤ 0.125 | 4 (≈ 2.26 µM) | 1 (≈ 0.566 µM) | 16 (≈ 9.05 µM) | – | – | – | – | – | – |
| CCCCCCCCCCCC(=O)NC1C(Oc2cc3cc(c2OC)Oc2ccc(cc2[N+](=O)[O-])C[C@@H](NC(=O)[C@H](N)CC(C)C)C(=O)N[C@@H](Cc2ccccc2)C(=O)N[C@H]3[C@@H](O)C(=O)NCCCC(=O)N[C@@H](C(=O)NCCCN(C)C)c2ccccc2)OC(CO)C(O)C1O.O=C(O)C(F)(F)F (stereo partly specified) | – | 8 | 16 | 32 | 16 | 16 | – | 32 | 16 | 32 | 32 | 8 | 8 | 32 |
| CCCCCCCCCCCC(=O)NC1C(Oc2c(Oc3ccc([N+](=O)[O-])cc3)cc3cc2Oc2ccc(cc2[N+](=O)[O-])C[C@@H](NC(=O)[C@H](N)CC(C)C)C(=O)N[C@@H](Cc2ccccc2)C(=O)N[C@H]3[C@H](O)C(=O)O)OC(CO)C(O)C1O.O=C(O)C(F)(F)F (stereo partly specified) | – | 32 | – | – | 64 | – | – | 32 | 8 | – | – | 32 | 8 | 32 |
| CC(C)C[C@@H](N)C(=O)N[C@@H]1Cc2ccc(c([N+](=O)[O-])c2)Oc2cc(cc(Oc3ccc([N+](=O)[O-])cc3)c2O)[C@H]([C@@H](O)C(=O)O)NC(=O)[C@H](Cc2ccccc2)NC1=O.Cl | – | 64 | – | – | – | – | – | 64 | 64 | – | – | – | 64 | – |
| COc1c(Oc2ccc([N+](=O)[O-])cc2)cc2cc1Oc1ccc(cc1[N+](=O)[O-])C[C@@H](NC(=O)[C@H](N)CC(C)C)C(=O)N[C@@H](Cc1ccccc1)C(=O)N[C@H]2[C@@H](O)C(=O)O.Cl | – | 16 | – | – | – | – | – | 16 | 16 | – | – | – | 16 | 64 |
| CCCCCCCCCCCC(=O)NC1C(Oc2cc3cc(c2OC)Oc2ccc(cc2[N+](=O)[O-])C[C@@H](NC(=O)[C@H](N)CC(C)C)C(=O)N[C@@H](Cc2ccccc2)C(=O)N[C@H]3[C@H](O)C(=O)O)OC(CO)C(O)C1O.Cl (stereo partly specified) | – | 32 | – | – | – | – | – | – | – | – | – | – | – | – |
| CCCCCCCCCCCC(=O)NC1C(Oc2cc3cc(c2OC)Oc2ccc(cc2[N+](=O)[O-])C[C@@H](NC(=O)[C@H](N)CC(C)C)C(=O)N[C@@H](Cc2ccccc2)C(=O)N[C@H]3[C@@H](O)C(=O)O)OC(CO)C(O)C1O.Cl (stereo partly specified) | – | 32 | 64 | – | 64 | – | – | – | 8 | 32 | 32 | 32 | 8 | 32 |
| CN[C@H](CC(C)C)C(=O)N[C@H]1C(=O)N[C@@H](CC(N)=O)C(=O)N[C@H]2C(=O)N[C@H]3C(=O)N[C@H](C(=O)N[C@H](C(=O)O)c4cc(O)cc(O)c4-c4cc3ccc4O)[C@H](O)c3ccc(c(Cl)c3)Oc3cc2cc(c3O[C@@H]2O[C@H](CO)[C@@H](O)[C@H](O)[C@H]2O[C@H]2C[C@](C)(N)[C@H](O)[C@H](C)O2)Oc2ccc(cc2Cl)[C@H]1O [VANCOMYCIN] | 1 (≈ 0.69 µM) | ≤ 0.125 | 1 (≈ 0.69 µM) | 1 (≈ 0.69 µM) | 2 (≈ 1.38 µM) | 8 (≈ 5.52 µM) | 1 (≈ 0.69 µM) | 8 (≈ 5.52 µM) | 1 (≈ 0.69 µM) | – | – | – | – | 2 (≈ 1.38 µM) |

From ChEMBL document CHEMBL1143447, “Identification of synthetic compounds active against VRE: the role of the lipidated aminoglucose and the structure of glycopeptide binding pocket” (2005)
